Measurements taken from US20130065227A1, “METHODS OF INCREASING MACROPINOCYTOSIS IN CANCER CELLS” (priority 2010, published 2013).

Key:
Type in all cases: cell-based
[1] = system: MCF7; assay: Uptake of AS1411 by macropinocytosis (MP); conditions: MCF7; Cancer, breast
From the text: (§1) There was little effect of amiloride treatment on uptake of FL-CRO in either DU145 cancer cells or non-malignant Hs27 cells (FIG. 9B). […] These studies also confirmed the previous results that there was higher overall uptake of FL-AS1411 in Hs27 cells than in DU145 cells.
(§2) It has recently been discovered that AS1411 can stimulate macropinocytosis (MP) in cancer cells and this finding was verified by several different methods and in multiple cancer cell lines (Table 1).

[2] = system: MDA-MB-231; assay: Uptake of AS1411 by macropinocytosis (MP); conditions: MDA-MB-231; Cancer, breast
From the text: as §1, §2

[3] = system: DU145; assay: Stimulation of macropinocytosis (dextran uptake)
Method: (Panel A) DU145 cells were treated with 10 μM tAS1411 or 10 μM tCRO or no oligonucleotide in complete DMEM medium at 37° C. for the time indicated. After treatment, cell medium was changed for fresh complete medium containing 0.2 mg/ml dextran-10K labeled with Alexa Fluor 488, and cells were incubated for 30 min at 37° C. After incubation, cells were harvested and analyzed by flow cytometry to determine dextran uptake. (Panel B) The same experiment was performed using Hs27 cells. (Panel C) DU145 cells were treated with 10 μM tAS1411 or 10 μM tCRO or no oligonucleotide in complete DMEM medium at 37° C. for 48 h. After treatment, cell medium was changed for fresh complete medium containing 0.2 mg/ml dextran-10K tagged with Alexa Fluor 488, and cells were incubated for 30 min at 37° C. Then, cells were washed with cold PBS, added PBS containing 5 μg/ml PI and incubated on ice for 5 min. After washing with cold PBS, cells were fixed and the distribution of macropinocytic marker was visualized by confocal microscopy. The nucleus was stained with DAPI (blue). Scale bars, 10 μm. All experiments have been repeated at least three times. Data are mean of three independent samples; bars, SE; *(p<0.05).
FIG. 6 are graphs showing that nucleolin regulates AS1411-induced stimulation of macropinocytosis. DU145 cells were untreated (no transfection) or transfected, without siRNA (mock), or with 30 nM of one of three different nucleolin siRNAs (NCL1, NCL2, NCL3) or a control siRNA (scramble). 48 h after transfection, cells were incubated with 10 μM tAS1411, 10 μM tCRO, or no oligonucleotide in complete DMEM medium at 37° C. for 24 h. (Panel A) After treatment, cell medium was changed for fresh complete medium containing 0.2 mg/ml dextran-10K labeled with Alexa Fluor 488 (green) and incubated for 30 min at 37° C. (Panel B) After treatment, some cells were washed, fresh complete medium containing 10 μM FL-AS1411 added and incubated for 2 h at 37° C. After incubation, cells were harvested and analyzed by flow cytometry. Mean fluorescence was normalized to “not transfected” control (Panel A) or to no pre-treatment control (Panel B). All experiments have been repeated at least three times. Data are the mean of three independent samples; bars, SE; *(p<0.05).
FIG. 11 is a graph showing a comparison between AS1411 and tAS1411 in the ability to stimulate macropinocytosis. DU145 cells were plated 18 hr before treatment with different concentrations (0, 5, 10, or 15 μM) of AS1411, tAS1411 or tCRO in complete DMEM medium at 37° C. for 48 h. After treatment, cell medium was changed for fresh complete medium containing 0.2 mg/ml dextran-10K labeled with Alexa Fluor 488, and cells were incubated for 30 min at 37° C. After incubation, cells were incubated on ice with […] PI in PBS, harvested, fixed and immediately analyzed by flow cytometry.
To analyze uptake of the oligodeoxynucleotides or dextran-10K (macropinocytic marker) by flow cytometry, 2×10^5 cells in fresh supplemented culture medium (2.5 ml) were plated into 6-well plates for 18 h. After complete adhesion, the cells were incubated with 5′-FAM tagged oligodeoxynucleotides or Alexa Fluor 488 tagged dextran-10K and incubated as indicated in the Description of the Drawings. Cells were washed once with ice-cold PBS, incubated with 1 μg/ml 7-amino-actinomycin D (7-AAD) for 5 min on ice or 1 μg/ml propidium iodide (PI), and washed twice with ice-cold PBS. Cells were then treated with 0.01% trypsin/0.5 mM EDTA (300 μl) for 3 min prior addition 3 ml supplemented culture medium. The cells were then centrifuged and resuspended in 0.5 ml of 1% paraformaldehyde for analysis by flow cytometry using a FACScalibur cytometer (BD Biosciences, Mountain View, Calif.).
AS1411 causes a change in cancer cell morphology that is characterized by vacuolization, irregular nuclei, and swollen cells (Xu et al., 2001, J. Biol. Chem., 276:43221-30). […]

5′-d(GGTGGTGGTGGTTGTGGTGGTGGTGG) [AS1411]
Update by MP? [1]: Yes
Update by MP? [2]: Yes
stimulation of macropinocytosis compared with tAS1411 ([3]; 0, 5, 10, or 15 μM for 48 h): same response as tAS1411
dextran uptake after treatment for shorter times ([3]; 1 h, 2 h, and 4 h): No changes in dextran uptake
Stimulate MP? ([3]; DU145, Cancer, prostate): Yes
